One assay deals with EGFR Tyr845. The experiment in a line: CRF-induced EGFR phosphorylation at Tyr845 in COS-7 cells expressing HA-CRF1R. In kind it is cell-based. The following applies: 100 nM wortmannin, 30 min pretreatment; 100 nM CRF, 5 min. The procedure: COS-7 cells (from the American Type Culture Collection) were cultured at 37°C in a humidified atmosphere of 95% air, 5% CO2, in DMEM supplemented with 10% FBS, 100 μg/ml streptomycin, and 100 units/ml penicillin (COS-7 growth medium). Transient transfections were performed using LipofectAMINE (Life Technologies: Gaithersburg, MD) as described previously ([27]). Cells were seeded at 8 × 10^5 cells/10-cm dish in COS-7 medium and cultured for 3 days before transfection. COS-7 cells were transfected in 5 ml/dish OptiMEM containing 10 μg/ml LipofectAMINE with empty vector, pcDNA3 encoding the HA-CRF1R or the HA-CRF1R-Δ386 mutant. […]
The protocols for measuring total and phosphorylated ERK1/2, c-Src, PYK2, Akt, and EGFR have been previously published ([28], [29]). […] The labeled bands were quantified using the Quantity One 4.6.3 software program (Bio-Rad).
Figure 6 CRF mediates EGFR phosphorylation at Tyr^845 and activation of PYK2. […] Total cell lysates were separated by SDS-PAGE and analyzed by immunoblotting with anti-p-EGFR Tyr^845 (A,B) or anti-p-PYK2 Tyr^402 (E), as described in Materials and Methods. EGFR and ERK1/2 phosphorylation were quantitated by densitometry, and mean values were plotted from three to five independent experiments. […] Src and EGFR were quantitated by densitometry, and mean values were plotted from three independent experiments. […]

Assay [1] deals with CRF1R-mediated Akt phosphorylation. The experiment in a line: CRF-induced Akt phosphorylation at Ser473 in COS-7 cells expressing HA-CRF1R. In kind it is cell-based, human. The following applies: wortmannin 100 nM, 30 min pretreatment; 100 nM CRF, 5 min. The method, then: Plasmid pRK5 encoding the carboxyl terminus of βARK that contains its βγ-binding domain (ct-βARK) was kindly provided by Dr. W. Koch (Center for Translational Medicine, Temple University, Philadelphia, PA), which is a scavenger for G protein βγ subunits ([25]). […] Plasmid pUSEamp encoding dominant-negative Akt-K179M (dn-Akt) was from Upstate Biotechnology (Lake Placid, NY).
COS-7 cells (from the American Type Culture Collection) were cultured at 37°C in a humidified atmosphere of 95% air, 5% CO2, in DMEM supplemented with 10% FBS, 100 μg/ml streptomycin, and 100 units/ml penicillin (COS-7 growth medium). Transient transfections were performed using LipofectAMINE (Life Technologies: Gaithersburg, MD) as described previously ([27]). Cells were seeded at 8 × 10^5 cells/10-cm dish in COS-7 medium and cultured for 3 days before transfection. COS-7 cells were transfected in 5 ml/dish OptiMEM containing 10 μg/ml LipofectAMINE with empty vector, pcDNA3 encoding the HA-CRF1R or the HA-CRF1R-Δ386 mutant. […] After replacing the transfection medium with fresh growth medium, transfected COS-7 cells were cultured for 1 day. Subsequently, cells were re-seeded in 6-well plates and cultured for an additional day prior to the experiment.
The protocols for measuring total and phosphorylated ERK1/2, c-Src, PYK2, Akt, and EGFR have been previously published ([28], [29]). After cells were cultured to 60–70% confluence, they were serum-deprived for 24 h. On the day of the experiment, cells were treated with the indicated ligands and inhibitors. […] After treatment, cells were placed on ice, the media was aspirated, and the cells were washed twice with ice-cold PBS and lysed in 100 μl of Laemmli sample buffer 1X. The lysates were briefly sonicated, heated at 95°C for 5 min, and centrifuged for 5 min at 14,000 rpm. Resulting supernatants were loaded in separate lanes of a 10% SDS-PAGE gels and electrophoresed. Next, Western transfer on to PDVF membranes was completed. The Western blots were then probed with specific antibodies targeting phosphorylated and non-phosphorylated forms of ERK1/2, c-Src, PYK2, Akt, and EGFR for primary immunodetection. […] The labeled bands were quantified using the Quantity One 4.6.3 software program (Bio-Rad).
Figure 7 CRF mediates Akt activation. […] Total cell lysates were separated by SDS-PAGE and analyzed by immunoblotting with anti-p-Akt Ser^473, as described in Materials and Methods. Akt phosphorylation was quantitated by densitometry, and mean values were plotted from three to five independent experiments. […]

One molecule from publication PMC6921279 (Frontiers in Endocrinology, 2019) can be followed below.

Take `COC[C@H]1OC(=O)c2coc3c2[C@@]1(C)C1=C(C3=O)[C@@H]2CCC(=O)[C@@]2(C)C[C@H]1OC(C)=O` [wortmannin]: the “effect on CRF-induced EGFR Tyr845 phosphorylation” value with EGFR Tyr845 is listed as “had no effect on CRF-induced phosphorylation of EGFR at Tyr^845”. The “effect on CRF1R-mediated Akt signaling activation” value in assay [1] is listed as “abolished CRF1R-mediated Akt signaling activation”.
